Source: patent US7488738B2, “Aminophenoxyacetic acid derivatives and pharmaceutical composition containing thereof” (Asubio Pharma Co., Ltd., priority 1998, dated 2009)

test system: cells of cerebral cortex; assay: Cytoprotective effect against glutamate induced cell death (MTT); format: cell-based, rats of Wister strain; settings: compound 1 μM added 24 h before 1 mM glutamate, fetal rat cerebral cortex cells, control group = 100%
Method: Biological Test 1: Cytoprotective Effect Against Glutamate Induced Cell Death
In accordance with the method of M. P. Mattoson [M. P. Mattoson, Brain Res. Rev., 13, 179 (1988)], brain of 18-days fetus rats of Wister strain were taken out. Then, cells of cerebral cortex (4×10^5 cells/ml) were seeded on poly-L-lysine coated 96 wells flat bottom plate (Sumitomo Bakelite Co., Ltd.) in concentration of 4×10^4 cells/each well. After 48 hours of incubation, 1 μM of test compounds were added, then after further 24 hours, 1 mM of glutamate were further added for inducing the cell injury. 12 hours after adding glutamate, MTT [3-(4,5-dimethylthiazol)-2,5-diphenyltetrazolium bromide] was added and incubated for 6 hours.
After incubation, 200 μl of dimethy sulfoxide was added to each wells, and the amounts of reduced MTT were calorimetrically analyzed by Micro ELISA Reader using 570 nm of main-wavelength and 650 nm of sub-wavelength.
The effect of the test compounds was determined as the survival rate of living cells (%) according to the following equation: Survival rate of living cells (%)=[(test compound group−glutamate treated group)÷(control group−glutamate treated group)]×100
That is, the survival rate of living cells after incubation of the control group was converted to 100%, and the survival data of living cells of the tested compounds was shown in Table II.

| SMILES | Survival Rate (%) (Compound: 1 μM) |
| --- | --- |
| Cc1cc(OC(C)(C)C(=O)NC2CCN(C/C=C/c3ccccc3)CC2)c(C)c(C)c1N [Compound 80, 2-(4-Amino-2,3,5-trimethylphenoxy)-2-methyl-N-[1-(3-phenyl-2-(E)-propenyl)-4-piperidinyl]propamide] | 99 |
| Cc1cc(OC(C)(C)C(=O)NC2CCN(CC3(c4ccccc4)CC3)CC2)c(C)c(C)c1N [Compound 81, 2-(4-Amino-2,3,5-trimethylphenoxy)-2-methyl-N-[1-(1-phenyl-1-cyclopropane)methyl-4-piperidinyl]propamide] | 97 |
| Cc1cc(OC(C)(C)C(=O)NC2CCN(CC(=O)Nc3ccccc3)CC2)c(C)c(C)c1N [Compound 82, 2-(4-Amino-2,3,5-trimethylphenoxy)-2-methyl-N-[1-(2-anilino-2-oxyethyl)-4-piperidinyl]propamide] | 149 |
| Cc1cc(OC(C)C(=O)NC2CCN(CC(=O)Nc3ccccc3)CC2)c(C)c(C)c1N (stereo not shown) [Compound 83, 2-(4-Amino-2,3,5-trimethylphenoxy)-N-[1-(2-anilino-2-oxyethyl)-4-piperidinyl]propamide] | 65 |
| Cc1cc(OC(C)C(=O)NC2CCN(C/C=C/c3ccccc3)CC2)c(C)c(C)c1N (stereo not shown) [Compound 84, 2-(4-Amino-2,3,5-trimethylphenoxy)-N-[1-(3-phenyl-2-(E)-propenyl)-4-piperidinyl]propamide] | 87 |
| Cc1cc(OCC(=O)NC2CCN(CC(=O)Nc3ccccc3)CC2)c(C)c(C)c1N [Compound 85, 2-(4-Amino-2,3,5-trimethylphenoxy)-N-[1-(2-anilino-2-oxyethyl)-4-piperidinyl]acetamide] | 98 |
| CCN(C(=O)C(C)Oc1cc(C)c(N)c(C)c1C)C1CCN(CC2(c3ccccc3)CC2)CC1 (stereo not shown) [Compound 87, 2-(4-Amino-2,3,5-trimethylphenoxy)-N-ethyl-N-[1-(1-phenyl-1-cyclopropane)methyl-4-piperidinyl]propamide] | 81 |
| CCN(C(=O)CNc1c(C)c(C)c(N)c(C)c1C)C1CCN(CC2(c3ccccc3)CC2)CC1 [Compound 88, 2-(4-Amino-2,3,5,6-tetramethylanilino)-N-ethyl-N-[1-(1-phenyl-1-cyclopropane)methyl-4-piperidinyl]acetamide] | 81 |
| Cc1cc(OCC(=O)N(C)C2CCN(CC(=O)Nc3cc(Cl)c(N)cc3Cl)CC2)c(C)c(C)c1N [Compound 89, 2-(4-Amino-2,3,5-trimethylphenoxy)-N-[1-(2-(4-amino-2,5-dichloro)anilino-2-oxyethyl)-4-piperidinyl]-N-methylacetamide] | 126 |
| Cc1cc(OC(C)C(=O)N(C)C2CCN(CC3(c4ccccc4)CC3)CC2)c(C)c(C)c1N (stereo not shown) [Compound 90, 2-(4-Amino-2,3,5-trimethylphenoxy)-N-methyl-N-[1-(1-phenyl-1-cyclopropane)methyl-4-piperidinyl]propamide] | 149 |
| Cc1c(C)c(OCC(=O)NC2CCN(CC(=O)Nc3ccccc3)CC2)c(Cl)c(C)c1N [Compound 91, 2-(4-Amino-2-chloro-3,5,6-trimethylphenoxy)-N-[1-(2-anilino-2-oxyethyl)-4-piperidinyl]acetamide] | 203 |
| Cc1c(C)c(OCC(=O)N(C)C2CCN(CC(=O)Nc3cc(Cl)c(N)cc3Cl)CC2)c(Cl)c(C)c1N [Compound 92, 2-(4-Amino-2-chloro-3,5,6-trimethylphenoxy)-N-[1-(2-(4-amino-2,5-dichloro)anilino-2-oxyethyl)-4-piperidinyl]-N-methylacetamide] | 66 |
| CCN(C(=O)COc1c(C)c(C)c(N)c(C)c1Cl)C1CCN(CC(=O)Nc2cc(C)c(O)cc2C)CC1 [Compound 93, 2-(4-Amino-2-chloro-3,5,6-trimethylphenoxy)-N-[1-(2-(2,5-dimethyl-4-hydroxy)anilino-2-oxyethyl)-4-piperidinyl]-N-ethylacetamide] | 171 |
| Cc1cc(OCC(=O)NC2CCN(CC3(c4ccccc4)CC3)CC2)c(C)c(C)c1N [Compound 96, 2-(4-Amino-2,3,5-trimethylphenoxy)-N-[1-(1-phenyl-1-cyclopropane)methyl-4-piperidinyl]acetamide] | 91 |
| Cc1cc(OCC(=O)NC2CCN(CCc3ccccc3)CC2)c(C)c(C)c1N [Compound 97, 2-(4-Amino-2,3,5-trimethylphenoxy)-N-(1-(2-phenethyl)-4-piperidinyl)acetamide] | 119 |
| Cc1cc(OC(C)(C)C(=O)NC2CCN(CC(=O)Nc3c(C)cccc3C)CC2)c(C)c(C)c1N [Compound 98, 2-(4-Amino-2,3-5-trimethylphenoxy)-2-methyl-N-[1-(2-(2,6-dimethylanilino)-2-oxyethyl)-4-piperidinyl]propamide] | 120 |
| Cc1cc(OC(C)(C)C(=O)NC2CCN(CC(=O)Nc3ccccc3C(C)(C)C)CC2)c(C)c(C)c1N [Compound 100, 2-(4-Amino-2,3,5-trimethylphenoxy)-2-methyl-N-[1-(2-(2-tert-butylanilino)-2-oxyethyl)-4-piperidinyl]propamide] | 138 |
| Cc1cc(OC(C)C(=O)NC2CCN(CC3(c4ccccc4)CC3)CC2)c(C)c(C)c1N (stereo not shown) [Compound 101, 2-(4-Amino-2,3,5-trimethylphenoxy)-N-[1-(1-phenyl-1-cyclopropane)methyl-4-piperidinyl]propamide] | 138 |
| Cc1cc(OC(C)C(=O)NC2CCN(CC(=O)NC3(c4ccccc4)CC3)CC2)c(C)c(C)c1N (stereo not shown) [Compound 102, 2-(4-Amino-2,3,5-trimethylphenoxy)-N-[1-(2-(1-phenylcyclopropyl)amino-2-oxyethyl)-4-piperidinyl]propamide] | 89 |
| Cc1cc(OC(C)C(=O)N(C)C2CCN(CC(O)COc3ccccc3)CC2)c(C)c(C)c1N (stereo not shown) [Compound 103, 2-(4-Amino-2,3,5-trimethylphenoxy)-N-methyl-N-[1-(2-hydroxy-3-phenoxy)propyl-4-piperidinyl]propamide] | 180 |
| Cc1cc(NC(=O)CN2CCC(N(C)C(=O)C(C)(C)Oc3cc(C)c(N)c(C)c3C)CC2)c(C)cc1O [Compound 107, 2-(4-Amino-2,3,5-trimethylphenoxy)-2-methyl-N-[1-(2-(2,5-dimethyl-4-hydroxy)anilino-2-oxyethyl]-4-piperidinyl]-N-methylpropamide] | 227 |
| Cc1c(C)c(NCC(=O)N(C)C2CCN(Cc3ccc(C(N)=O)cc3)CC2)c(C)c(C)c1N [Compound 116] | 59 |
| Cc1c(C)c(N(C)CC(=O)N(C)C2CCN(CCc3ccccc3)CC2)c(C)c(C)c1N [Compound 120, 2-(4-Amino-2,3,5,6-tetramethyl-N-methylanilino)-N-methyl-N-[1-(2-phenethyl)-4-piperidinyl]acetamide] | 88 |
| Cc1c(C)c(NC(C)C(=O)N(C)C2CCN(CC3CC3)CC2)c(C)c(C)c1N (stereo not shown) [Compound 121, 2-(4-Amino-2,3,5,6-tetramethylanilino)-N-[1-(cyclopropylmethyl)-4-piperidinyl]-N-methylpropamide] | 82 |
| Cc1cc(C)c(NCC(=O)N(C)C2CCN(CC(O)COc3ccccc3)CC2)c(C)c1N (stereo not shown) [Compound 126, 2-(3-Amino-2,4,6-tirmethylanilino)-N-[1-(2-hydroxy-3-phenoxy)propyl-4-piperidinyl]-N-methylacetamide] | 47 |
| Cc1cc(C)c(NCC(=O)N(C)C2CCN(CC(=O)c3ccccc3)CC2)c(C)c1N [Compound 127, 2-(3-Amino-2,4,6-trimethylanilino)-N-methyl-N-[1-(2-phenyl-2-oxyethyl)-4-piperidinyl]acetamide] | 72 |

same assay, conditions: compound 1 μM added 24 h before 1 mM glutamate, fetal rat cerebral cortex cells, control group = 100%, read-out: Survival Rate (%) (Compound: 1 μM)

| SMILES | viability at 1 µM [%] |
| --- | --- |
| Cc1cc(OCC(=O)NC2CCN(C/C=C/c3ccccc3)CC2)c(C)c(C)c1N [Compound 86, 2-(4-Amino-2,3,5-trimethylphenoxy)-N-[1-(3-phenyl-2-(E)-propenyl)-4-piperidinyl]acetamide] | 127 |
| Cc1c(C)c(NCC(=O)N(C)C2CCN(Cc3ccccc3)CC2)c(C)c(C)c1N [Compound 110, 2-(4-Amino-2,3,5,6-tetramethylanilino)-N-(1-benzyl-4-piperidinyl]-N-methylacetamide] | 61 |
| Cc1c(C)c(NCC(=O)N(C)C2CCN(Cc3ccncc3)CC2)c(C)c(C)c1N [Compound 114, 2-(4-Amino-2,3,5,6-tetramethylanilino)-N-methyl-N-[1-(4-pyridylmethyl)-4-piperidinyl]acetamide] | 50 |
| Cc1cc(C)c(NCC(=O)N(C)C2CCN(C/C=C/c3ccccc3)CC2)c(C)c1N [Compound 125, 2-(3-Amino-2,4,6-trimethylanilino)-N-methyl-N-[1-(3-phenyl-2-(E)-propenyl)-4-piperidinyl]acetamide] | 52 |
| Cc1cc(C)c(NCC(=O)N(C)C2CCN(CC3CC3)CC2)c(C)c1N [Compound 129, 2-(3-Amino-2,4,6-trimethylanilino)-N-[1-(cyclopropylmethyl)-4-piperidinyl]-N-methylacetamide] | 64 |
